Holding throughout (type): cell-based
For assay [1], the system named is human lung cancer (A549) cells. Briefly: MTT tumor cell growth inhibition, human lung cancer (A549). Particulars: Homo sapiens; A549, 48 h culture, MTT method; read-out: IC50 value of target compound against cancer cell proliferation, A549. As to the method: (§1) Dissolve CHJ compound series with dimethyl sultbxide (DMSO, final concentration 0.4%), and use RPMI-1640 culture medium containing 15% fetal calf serum to prepare 1 mg/mL solution for future use. During drug administration in groups, use the culture medium to dilute it to the concentration needed.
(§2) Cell lines: human lung cancer (A549), Inman ovarian cancer (SKOV3), human melanoma (A375) and human colon cancer (LOVO) cell lines, all purchased from the Cell Bank of the Chinese Academy of Sciences, DMEM containing 15% fetal bovine serum (High Glucose) culture medium, placed in a 37° C., 5% CO2 incubator.
(§3) MTT is an oxidizing yellow dye with the chemical name of 3-(4,5-dimethyl-2-thiazolyl)-2,5-diphenyl-2-H-tetrazoliumbromide tetrazole bromide. The MMT method, also known as the MTT colorimetric method, can test the survival and growth of cells. The method is simple and easily accessible and often used to screet the substance with cytotoxic activity. The basic principle of testing, is that succinodehydrogenase can reduce exogenous MIT so that MTT is reduced to blueviolet crystal Formazan insoluble to water. The crystal deposits in cells. The succinodehydrogenase exists in the mitochondria of living cells, not in the dead cells. Therefore, the chromogenic reaction can only take place in living cells. Then, dissolve the blueviolet crystal Formazan contained in cells with dimethyl sulfoxide (DMSO), and measure its absorbancy with microplate reader so that the count of living cells is reflected indirectly. Within the scope of certain cell count, the amount of blueviolet crystal Formazan formed is positively correlated to the count of living cells.
(§4) Human lung cancer (A549), human ovarian cancer (SKOV3), human melanoma (A375) and human colon cancer (LOVO) ceilsare all adherent. Based on the growth rate of tumor cells, wash the adherent tumor cells in the logarithmic phase and digest them in 0.25% EDTA pancreatic enzyme. Adjust the cell count to 1×10^5/mL and inoculate the cells in 96-pore plate, each pore containing 100 μL. Culture the cells in the 37° C. CO2 incubator, and administer the drug 24 h later. Add pharmaceutical (CJH compound series) of different concentrations to the administration group. Set up 5 dosage groups for each pharmaceutical, respectively 100, 10, 1, 0.1, 0.01 μmol/L. Set up three complex pores for each concentration. Set up blank control, DMSO (0.8%) solvent control and cis-platinum positive control. After 48 h of culture in the 37 ° C. incubator containing 5% CO2, measure the OD value through MTT method and calculate the cell inhibition ratio.
(§5) After 48 h of culture of human lung cancer (A549), human ovarian cancer (SKOV3). human melanoma (A375) and human colon cancer (LOVO) cells, stop it and add 10 μL 0.5% MTT solution to each pore. Place it in the CO2 incubator for 4 h. Remove the liquid from each pore, respectively add 0.2 mL DMSO solution, and oscillate it adequately on the table concentrator under low frequency so that the blueviolet crystal Formazan is dissolved adequately. Place it in the microplate reader and record the OD value at the wavelength of […]. Calculate the average OD value of three parallel pores of different concentrations, and calculate the cell inhibition ratio and IC50 of each tested pharmaceutical under different concentrations based on the average.
(§6) Inhibition ratio (%)=[1-tested sample OD/negative control group OD]×100%.
A general note: Tetrazolium assays rely on reduction of a dye to a coloured formazan, in cell work by metabolically active cells.

In assay [2] the test system is human melanoma (A375) cells. Briefly: MTT tumor cell growth inhibition, human melanoma (A375). Particulars: Homo sapiens, A-375; A375, 48 h culture, MTT method; read-out: IC50 value of target compound against cancer cell proliferation, A375. As to the method:
as §1, §2, §3, §4, §5, §6

For assay [3], the system named is human lung cancer (A549), human ovarian cancer (SKOV3), human melanoma (A375) and human colon cancer (LOVO) cells. The assay can be described thus: MTT tumor cell growth inhibition, overall comment on the four cell lines. The following applies: summary of the IC50 data over A549, SKOV3, A375, LOVO. As to the method:
as §1, §2, §3
as §4, with “After 48 h of culture in the 37 ° C. incubator containing 5% CO2, measure the OD value through MTT method and calculate the cell inhibition ratio.” left out
After 48 h of culture of human lung cancer (A549), human ovarian cancer (SKOV3). human melanoma (A375) and human colon cancer (LOVO) cells, stop it and add 10 μL 0.5% MTT solution to each pore. […] Place it in the microplate reader and record the OD value at the wavelength of […]. […]

Assay [4] deals with human colon cancer (LOVO) cells. Briefly: MTT tumor cell growth inhibition, human colon cancer (LOVO). Particulars: Homo sapiens, 48 h culture, MTT method, read-out: IC50 value of target compound against cancer cell proliferation, LOVO. Here is the method:
as §1, §2, §3, §4, §5, §6

Assay [5] deals with human ovarian cancer (SKOV3) cells. Briefly: MTT tumor cell growth inhibition, human ovarian cancer (SKOV3). Particulars: Homo sapiens, SK-OV-3; SKOV3, 48 h culture, MTT method; read-out: IC50 value of target compound against cancer cell proliferation, SKOV3. As to the method:
as §1, §2, §3, §4, §5, §6

“Also recorded” adds a separate entry of the source.

In the case of `COc1cc(CN(C)CC(O)COc2c(Br)cc(Br)cc2Br)ccc1OCCN1CCCC1` (stereo not drawn) [CHJ04068, 1-((3-methoxy-4-(2-(pyrrolidin-1-yl)ethoxy)henzyl)(methyl)amino)-3-(2,4,6-tribromophenoxy)propan-2-ol], the IC50 in assay [1] was determined as 5.46 ± 1.76 µM; in assay [2], 1.54 ± 1.34 µM; in assay [4], 0.52 ± 0.4 µM; in assay [5], 4.21 ± 1.23 µM. The “anti-cancer activity, in words” value in assay [3] is listed as “lowered prominently; also recorded: the most active, as active as the cis-platinum in the control group”.

Take `COc1cc(CN(C)CC(O)COc2ccc(NC(C)=O)cc2)ccc1OCCN1CCC(C)CC1` (stereo not drawn) [CHJ04061, N-(4-2-hydroxy 3-((3-methoxy-4-(2-(4-methylpiperidin-1-yl)ethoxy)benzyl)(methyl)amino)propoxy)phenypacetamide]: the IC50 in assay [1] was determined as 333.1 ± 2.7 µM; in assay [4], 97.1 ± 4.21 µM; in assay [5], 143 ± 3.1 µM. In addition, the “anti-cancer activity, in words” value in assay [3] is listed as “lowered prominently”.

`COc1cc(CN(C)CC(O)COc2c(Br)cc(Br)cc2Br)ccc1OCCN1CCC(C)CC1` (stereo not drawn) [CHJ04022, 1-((3-methoxy-4-(2-(4-methylpiperidin-1-yl)ethoxy)benzyl)(methy)amino)-3-(2,4,6-tribromnophenoxy)propan-2-ol]: the IC50 in assay [1] worked out at 1.88 ± 0.19 µM; in assay [2], 0.05 ± 0.01 µM; in assay [4], 0.69 ± 0.03 µM; in assay [5] it was 1.03 ± 0.24 µM. The “anti-cancer activity, in words” value in assay [3] was “the most active, as active as the cis-platinum in the control group”.

As for `CCN(CC)CCOc1ccc(CN(C)CC(O)COc2ccccc2C(C)C)cc1OC` (stereo not drawn) [CHJ04089, 1-((4-(2-(diethylamino)ethoxy)-3-methoxybenzyl)(methyl)amino)-3-(2-isopropylphenoxy)propan-2-ol], the IC50 was 27.8 ± 1.73 µM in assay [1], 15 ± 2.37 µM in assay [2], 49.5 ± 3.54 µM in assay [4] and 42.7 ± 2.61 µM in assay [5].

Turning to `COc1cc(CN(C)CC(O)COc2ccc(Br)cc2OC)ccc1OCCN1CCC(C)CC1` (stereo not drawn) [CHJ03005, 1-(4-bromo-2-methoxypbenoxy)-3-((3-methoxy-4-(2-(4-methylpiperidin-1-yl)ethoxy)benzyl)(methyl)amino)propan-2-ol], the IC50 in assay [1] amounted to 15.6 ± 0.16 µM; in assay [2] it was 5.6 ± 0.81 µM; in assay [4], 6.66 ± 0.11 µM; in assay [5] it was 3.99 ± 0.21 µM.

For `CCN(CC)CCOc1ccc(CN(C)CC(O)COc2c(Cl)cc(Br)cc2Cl)cc1OC` (stereo not drawn) [CHJ04094, 1-(4-bromo-2,6-dichlorophenoxy)-3-((4-(2-(diethylamino)ethoxy)-3-methoxybenzyl) (methyl)amino)propan-2-ol], the IC50 in assay [1] is 18.4 ± 3.17 µM; in assay [2], 2.05 ± 1.01 µM; in assay [4] it was 28.5 ± 4.42 µM; in assay [5], 15.9 ± 2.11 µM.

Consider `COc1cc(CN(C)CC(O)COc2cc(F)cc(Br)c2)ccc1OCCN1CCC(C)CC1` (stereo not drawn) [CHJ04023], for which the IC50 is 5.44 ± 2.54 µM in assay [1], 0.81 ± 0.33 µM in assay [2], 3.07 ± 1.62 µM in assay [4] and 8.03 ± 2.77 µM in assay [5].

For `CCCc1ccc(OCC(O)CN(C)Cc2ccc(OCCN3CCC(C)CC3)c(OC)c2)c(OC)c1` (stereo not drawn) [CHJ03011, 1-((3-methoxy-4-(2-(4-methylpiperidin-1-yl)ethoxy)benzyl)(methyl)amino)-3-(2-methoxy-4-propylphenoxy)propan-2-ol], the IC50 in assay [1] amounted to 10.56 ± 0.02 µM; in assay [2], 1.82 ± 1.23 µM; in assay [4] it was 15.2 ± 1.78 µM; in assay [5], 21.2 ± 1.08 µM. Besides, the “anti-cancer activity, in words” value in assay [3] was “still effective against cancer”.

On to `COc1cc(CN(C)CC(O)COc2ccccc2Cl)ccc1OCCN1CCC(C)CC1` (stereo not drawn) [CHJ04085, 1-(2-chlorophenoxy)-3-((3-methoxy-4-(2-(4-methylpiperidin-1-yl)ethoxy)benzyl) (methyl)amino)propan-2-ol], for which the IC50 in assay [1] turned out to be 28.8 ± 5.12 µM; in assay [2], 7.32 ± 1.8 µM; in assay [4], 1.94 ± 0.79 µM; in assay [5], 49.2 ± 1.97 µM.

(Values after patent US20240166602A1, “SUBSTITUTED DIARYL COMPOUND AS WELL AS PREPARATION METHOD AND APPLICATION THEREOF” (SHANDONG FIRST MEDICAL UNIV & SHANDONG ACADEMY OF MEDICAL …, priority 2021, published 2024).)
